Experimental data published in patent US20250282746A1, “HALOGEN-SUBSTITUTED ISOINDOLINE COMPOUND AND USE THEREOF” (CHENGDU FENDI PHARMACEUTICAL CO., LTD., priority 2022, published 2025).
Read-outs that look alike come from different tables or passages of the source.

Key:
IKZF3 = molecular target: T1, IKZF3 (Homo sapiens, UniProt Q9UKT9); assay: Degradation of IKZF3 protein in HL-60 cells (Western blot); format: cell-based; conditions: 4 h
T1 construct: The whole cell lysate was prepared using a RIPA lysis buffer; endogenous in cells; host or cells: HL-60 cells
T1 sequence (Q9UKT9 whole entry): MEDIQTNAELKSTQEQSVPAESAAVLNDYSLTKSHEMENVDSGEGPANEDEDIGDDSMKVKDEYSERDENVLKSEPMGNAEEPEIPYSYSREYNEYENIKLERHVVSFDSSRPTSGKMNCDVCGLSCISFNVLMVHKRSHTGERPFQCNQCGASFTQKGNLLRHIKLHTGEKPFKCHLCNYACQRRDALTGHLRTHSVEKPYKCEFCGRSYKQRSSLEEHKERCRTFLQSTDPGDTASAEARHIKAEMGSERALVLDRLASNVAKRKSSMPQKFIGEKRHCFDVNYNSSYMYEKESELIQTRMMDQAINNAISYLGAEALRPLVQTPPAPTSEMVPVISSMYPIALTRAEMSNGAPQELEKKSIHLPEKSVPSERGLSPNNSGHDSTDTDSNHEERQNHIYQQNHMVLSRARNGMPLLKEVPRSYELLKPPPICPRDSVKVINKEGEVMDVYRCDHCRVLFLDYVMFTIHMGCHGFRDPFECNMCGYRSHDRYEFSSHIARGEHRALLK
Description: (§1) […] of DMSO and the compounds were added, and the mixture was incubated in an incubator at 5% CO2 and 37° C. for 4 h. The cells were centrifuged, and the culture medium was discarded. PBS was added for washing and then discarded. The whole cell lysate was prepared using a RIPA lysis buffer containing a protease inhibitor cocktail and a phosphatase inhibitor, and incubated on ice for 30 min. The mixture was centrifuged, and the cell debris was discarded. The whole cell lysate supernatant was collected and transferred to a fresh EP tube. Samples were prepared using a loading buffer after a BCA protein assay. The samples were incubated in a metal bath at 100° C. for 10 min. The samples were electrophoretically separated from proteins on a 4-20% precast gel (SDS-PAGE gel), transferred to a PVDF membrane, blocked with 5% NFDM/TBST for 1 h at room temperature, co-incubated overnight at 4° C. with the primary antibody, and co-incubated for 2 h at room temperature with the secondary antibody on the next day. The signals were detected on the […]™ imaging system.

hERG potassium channel = molecular target: T2, hERG potassium channel (Homo sapiens, UniProt Q12809); assay: hERG inhibition assay (automated patch clamp, HEK293); format: cell-based; conditions: 3 μM, HEK293 cells, QPatch
T2 construct: expressed in transfected cells; host or cells: HEK293 cells
T2 sequence (Q12809 whole entry): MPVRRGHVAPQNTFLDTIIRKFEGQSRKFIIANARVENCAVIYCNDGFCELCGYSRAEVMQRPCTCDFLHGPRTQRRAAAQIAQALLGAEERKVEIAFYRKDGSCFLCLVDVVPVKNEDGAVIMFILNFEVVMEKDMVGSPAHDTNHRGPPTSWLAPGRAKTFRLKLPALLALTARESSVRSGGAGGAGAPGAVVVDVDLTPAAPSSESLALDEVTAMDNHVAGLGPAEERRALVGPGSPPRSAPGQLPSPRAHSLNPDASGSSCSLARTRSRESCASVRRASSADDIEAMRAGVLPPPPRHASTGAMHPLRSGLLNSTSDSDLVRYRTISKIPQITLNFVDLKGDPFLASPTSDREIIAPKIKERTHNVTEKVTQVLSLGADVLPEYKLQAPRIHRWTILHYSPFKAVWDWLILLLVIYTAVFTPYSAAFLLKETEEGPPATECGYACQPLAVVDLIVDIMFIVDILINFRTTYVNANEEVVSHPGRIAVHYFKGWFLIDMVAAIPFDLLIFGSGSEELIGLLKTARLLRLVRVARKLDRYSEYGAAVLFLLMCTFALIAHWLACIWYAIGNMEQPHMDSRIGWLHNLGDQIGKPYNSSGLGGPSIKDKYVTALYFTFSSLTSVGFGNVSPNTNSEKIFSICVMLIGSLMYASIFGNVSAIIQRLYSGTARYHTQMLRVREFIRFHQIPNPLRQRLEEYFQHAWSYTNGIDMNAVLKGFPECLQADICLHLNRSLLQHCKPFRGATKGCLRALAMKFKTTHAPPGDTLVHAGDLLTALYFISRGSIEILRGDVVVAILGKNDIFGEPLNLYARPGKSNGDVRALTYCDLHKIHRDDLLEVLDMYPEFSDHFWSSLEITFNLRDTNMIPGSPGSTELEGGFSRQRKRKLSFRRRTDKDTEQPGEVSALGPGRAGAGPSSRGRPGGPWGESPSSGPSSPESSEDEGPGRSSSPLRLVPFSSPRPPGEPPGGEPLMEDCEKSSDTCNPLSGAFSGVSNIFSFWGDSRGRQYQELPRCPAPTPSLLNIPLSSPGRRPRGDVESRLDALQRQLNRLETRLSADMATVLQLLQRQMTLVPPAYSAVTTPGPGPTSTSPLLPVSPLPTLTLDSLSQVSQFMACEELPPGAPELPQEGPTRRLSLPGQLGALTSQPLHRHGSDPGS
Description: The rapidly activating potassium channel encoded by human ether-a-go-go-related gene (hERG) is an important ion channel involved in the formation of cardiac action potential phase 3 repolarization. Blocking of the hERG channel by drugs can lead to the prolongation of cardiac repolarization and thus a prolonged QT interval in the electrocardiogram, known as long QT syndrome. Drug-induced delayed ventricular repolarization may in some cases trigger fatal arrhythmia-torsade de pointes-type ventricular tachycardia.
This assay was used to measure the effect of compounds on the hERG potassium channel clones expressed in human embryonic kidney (HEK293) cells. The assay procedures are as follows: the cells were transferred into a HEPES-buffered saline in glass-lined 96-well plates and exposed to an appropriate amount of test compound or control solution at various concentrations for 3 min. The test compounds were diluted in 0.3% DMSO.

CK1α = molecular target: T3, CK1α (Homo sapiens, UniProt P48729); assay: Degradation of CK1α protein in HL-60 cells (Western blot); format: cell-based; conditions: 4 h
T3 construct: The whole cell lysate was prepared using a RIPA lysis buffer; endogenous in cells; host or cells: HL-60 cells
T3 sequence (P48729 whole entry): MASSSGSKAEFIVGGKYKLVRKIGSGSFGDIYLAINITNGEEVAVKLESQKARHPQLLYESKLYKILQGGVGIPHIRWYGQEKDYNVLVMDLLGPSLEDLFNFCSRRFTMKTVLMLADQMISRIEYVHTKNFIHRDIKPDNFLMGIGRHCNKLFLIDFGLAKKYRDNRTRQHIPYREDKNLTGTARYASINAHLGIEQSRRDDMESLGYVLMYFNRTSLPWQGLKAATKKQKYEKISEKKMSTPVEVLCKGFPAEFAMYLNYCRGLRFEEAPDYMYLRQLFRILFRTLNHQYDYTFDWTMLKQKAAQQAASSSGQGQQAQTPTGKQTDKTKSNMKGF
Description: as §1

MV-4-11 cells = assay: Antiproliferative activity against MV-4-11 cells (CellTiter-Glo, 72 h); format: cell-based; conditions: Homo sapiens
Outline: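 MV-4-11 cells in RPMI + 10% FBS plated at 5,000 cells/well and pre-incubated 24 h at 37 °C, 5% CO2. Compounds were then added (final DMSO 0.2%) and cells incubated 72 h. Viability was read by CellTiter-Glo luminescence after 30 min equilibration at room temperature.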

MV-4-11-Luc xenograft = assay: Efficacy in acute myeloid leukemia MV-4-11-luc xenograft mouse model; format: in vivo; conditions: 10 mg/kg orally twice daily, NSG mice
Description: In an in vivo efficacy study, female immunocompromised NSG mice aged 6 to 8 weeks were used and the experimental procedures started after the animals were acclimatized in the experimental environment for 7 days. The animals were housed in SPF animal rooms in individually ventilated cages (IVCs) each containing 6 mice. Human acute myeloid leukemia MV-4-11 cells expressing luciferase (MV-4-11-luc) were grafted into mice by tail vein injection (5×10^6 cells/mouse). Seven days after the cell grafting, the mice were subjected to imaging on the IVIS Lumina III small animal imaging system for grouping and administration, and tumor-bearing mice were randomized to the vehicle control group or treatment groups (6 mice/group). The compound (10 mg/kg, twice daily) was administered to the animals in each treatment group by oral gavage. The body weight was measured daily, while mean luminescence was measured after the start of treatment with the compounds or vehicle.
Indicators: The indicators were to investigate whether the tumor growth was inhibited or delayed or the tumor was cured. The tumor size was measured twice weekly using the IVIS Lumina III small animal imaging system. The tumor signals were determined by exposure photons per second. The anti-tumor efficacy of the compounds was evaluated by the tumor proliferation rate T/C (%). T/C %=TRTV/CRTV×100% (TRTV: the RTV of the treatment group; CRTV: the RTV of negative control group; RTV=Vt/V0, where V0 is the tumor signal measured at the time of grouping and administration (i.e., day 0), and Vt is the tumor signal at every measurement). According to the guidelines of the Center for Drug Evaluation, NMPA, a T/C (%) of >40% denotes the absence of efficacy, while a T/C of <40% with P<0.05 denotes the presence of efficacy.

MOLM-13 cells = assay: Antiproliferative activity against various tumor cells: MOLM-13; format: cell-based; conditions: Homo sapiens, read-out: Antiproliferative activity IC50 MOLM-13
Description: (§2) U937, NCI-H929, AML-2, and MOLM-13 cells in the logarithmic growth phase were diluted in media RPMI+10% FBS, RPMI+10% FBS, MEMα+20% FBS, RPMI+20% FBS, respectively, and plated at 4,000 cells/well in 96-well whole black plates (WHB) with 50 μL/well. After plating, the plates were incubated in an incubator at 5% CO2 and 37° C. for 24 h before the compounds were added. The compounds were prepared into a 10 mM stock solution in DMSO and diluted in a culture medium to the desired concentrations (a final DMSO concentration of 0.2%). […] The plates were incubated at 5% CO2 and 37° C. for 72 h. After the incubation was complete, the plates were equilibrated at room temperature for 30 min. CellTiter-Glo® Reagent (Promega G7573) was added at 100 μL/well. The plates were shaken for 12 min on a microplate shaker. The luminescence value was measured at room temperature by the GloMax navigator (Promega GM2010).

NCI-H929 cells = assay: Antiproliferative activity against various tumor cells: NCI-H929; format: cell-based; conditions: Homo sapiens, read-out: Antiproliferative activity IC50 NCI-H929
Description: as §2

IKZF1 = molecular target: T4, IKZF1 (Homo sapiens, UniProt Q13422); assay: Degradation of IKZF1 protein in HL-60 cells (Western blot); format: cell-based; conditions: 4 h
T4 construct: The whole cell lysate was prepared using a RIPA lysis buffer; endogenous in cells; host or cells: HL-60 cells
T4 sequence (Q13422 whole entry): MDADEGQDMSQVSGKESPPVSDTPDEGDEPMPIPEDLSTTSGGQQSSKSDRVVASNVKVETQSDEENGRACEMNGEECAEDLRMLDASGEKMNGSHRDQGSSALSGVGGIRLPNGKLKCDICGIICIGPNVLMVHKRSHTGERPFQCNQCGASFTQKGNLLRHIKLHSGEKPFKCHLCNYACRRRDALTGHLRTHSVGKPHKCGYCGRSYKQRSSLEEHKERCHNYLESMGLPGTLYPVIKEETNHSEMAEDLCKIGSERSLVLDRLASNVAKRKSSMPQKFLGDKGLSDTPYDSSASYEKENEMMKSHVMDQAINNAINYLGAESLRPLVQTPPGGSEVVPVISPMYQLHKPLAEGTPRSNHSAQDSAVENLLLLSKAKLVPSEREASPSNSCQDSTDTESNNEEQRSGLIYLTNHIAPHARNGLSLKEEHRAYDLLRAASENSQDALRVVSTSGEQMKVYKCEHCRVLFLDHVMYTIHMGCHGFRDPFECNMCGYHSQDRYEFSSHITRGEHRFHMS
Description: as §1

SMILES | IKZF3 degradation (IKZF3; 10 nM) | IKZF3 degradation (IKZF3; 100 nM) | IKZF3 degradation (IKZF3; 1000 nM) | hERG inhibition rate (hERG potassium channel) | CK1α degradation (CK1α; 10 nM) | CK1α degradation (CK1α; 100 nM) | CK1α degradation (CK1α; 1000 nM) | T/C (%) Day 3 (MV-4-11-Luc xenograft) | T/C (%) Day 7 (MV-4-11-Luc xenograft) | T/C (%) Day 10 (MV-4-11-Luc xenograft) | T/C (%) Day 14 (MV-4-11-Luc xenograft) | IKZF1 degradation (IKZF1; 10 nM) | IKZF1 degradation (IKZF1; 100 nM) | IKZF1 degradation (IKZF1; 1000 nM) | also measured
O=C1CCC(N2Cc3c(ccc(CNC(=O)c4ccc(Cl)cc4)c3F)C2=O)C(=O)N1 (centres unmarked) [FDAB-48] | C (C denotes a percentage of degradation less than 500% but not less than 250%) | B (B denotes a percentage of degradation less than 800% but not less than 500%) | A (A denotes a percentage of GSPT1 protein degradation not less than 8000) | 25% | D (D denotes a percentage of degradation less than 25%) | D (D denotes a percentage of degradation less than 25%) | D (D denotes a percentage of degradation less than 25%) | 0.95% | 0.22% | 0.10% | 0.05% | B (B denotes a percentage of degradation less than 800% but not less than 500%) | A (A denotes a percentage of GSPT1 protein degradation not less than 8000) | A (A denotes a percentage of GSPT1 protein degradation not less than 8000) | IC50 (MV-4-11 cells; MV4-11, 72 h, read-out: Antiproliferative activity IC50): 10 to 100 nM; IC50 (MV-4-11 cells; MV4-11, read-out: IC50 against MV-4-11 cell proliferation): 10.8 nM; IC50 (MOLM-13 cells; MOLM-13, 72 h): 10 to 100 nM; IC50 (NCI-H929 cells; NCI-H929, 72 h): 1 to 10 nM
Cc1ccc(C(=O)NCc2ccc3c(c2F)CN(C2CCC(=O)NC2=O)C3=O)c(F)c1 (centres unmarked) [FDAB-121] | D (D denotes a percentage of degradation less than 25%) | B (B denotes a percentage of degradation less than 800% but not less than 500%) | B (B denotes a percentage of degradation less than 800% but not less than 500%) | 9% | D (D denotes a percentage of degradation less than 25%) | D (D denotes a percentage of degradation less than 25%) | C (C denotes a percentage of degradation less than 500% but not less than 250%) | 0.32% | 0.06% | 0.02% | 0.00% | B (B denotes a percentage of degradation less than 800% but not less than 500%) | A (A denotes a percentage of GSPT1 protein degradation not less than 8000) | A (A denotes a percentage of GSPT1 protein degradation not less than 8000) | IC50 (MV-4-11 cells; MV4-11, MV-4-11 cells, 72 h, read-out: Antiproliferative activity IC50): 1 to 10 nM; IC50 (MOLM-13 cells; MOLM-13 cells, 72 h): 10 to 100 nM; IC50 (NCI-H929 cells; NCI-H929 cells, 72 h): 1 to 10 nM
